# Earlier results in US6395294B1, “Method of visualization of the vitreous during vitrectomy” (priority 2000, dated 2002).
# Where two headings read alike, the source gives them in different places.
# How the values were obtained:
# [1] = intravitreal injections
# [2] = intravenous
# blood retinal barrier = conditions: intravitreal, experimental
# [3] = primate eyes
# [4] = human eyes
# [5] = intravitreal, experimental
# [6] = rabbit eyes
smiles,measurement,setting,value
C[C@@H]1C[C@H]2[C@@H]3CCC4=CC(=O)C=C[C@]4(C)[C@@]3(F)[C@@H](O)C[C@]2(C)[C@@]1(O)C(=O)COP(=O)(O)O [dexamethasone sodium phosphate],retinal toxicity,dose of 2 mg,did not show retinal toxicity
C[C@]12CCC(=O)C=C1CC[C@@H]1[C@@H]2[C@@H](O)C[C@@]2(C)[C@H]1CC[C@]2(O)C(=O)CO [hydrocortisone],aqueous formation rate and outflow facility compared with saline injection,[1],no difference
same,intraocular pressure,"[1]; both drug and saline groups, because of a decrease in outflow facility",increased intraocular pressure
"C[C@H]1C[C@@H]2[C@H]([C@@H](O)C[C@@]3(C)[C@H]2CC[C@]3(O)C(=O)COC(=O)CCC(=O)[O-])[C@@]2(C)C=CC(=O)C=C12.[Na+] [solumedrol, methylprednisolone sodium succinate]",effect on diabetic eyes with rubeosis iridis,[2],quiets diabetic eyes with rubeosis iridis
"CC1(C)O[C@@H]2C[C@H]3[C@@H]4CCC5=CC(=O)C=C[C@]5(C)[C@@]4(F)[C@@H](O)C[C@]3(C)[C@]2(C(=O)CO)O1 [triamcinolone, triamcinolone acetonide]",retinal toxicity,"vitrectomized and nonvitrectomized eyes, dosage of 2-4 mg",no retinal toxicity
same,breakdown of the blood retinal barrier,blood retinal barrier,reduce the breakdown of the blood retinal barrier
same,tolerance in the eye,[3],well tolerated
same,tolerance in the eye,[4],well tolerated
same,angiogenesis,[5],inhibit angiogenesis
same,incidence of proliferative vitreoretinopathy and subsequent retinal detachment,[5],reduce the incidence of proliferative vitreoretinopathy and subsequent retinal detachment
same,preretinal and optic disc neovascularization,[5],inhibit preretinal and optic disc neovascularization
same,tolerance in the eye,[6],well tolerated
